Measured values published in US12559529B2, “NPY2 receptor agonists” (Boehringer Ingelheim International GmbH, priority 2019, dated 2026).

target: T1, Human Neuropeptide Y2 Receptor (Homo sapiens, UniProt P49146); experiment: Radioligand binding competition assay (RLB); conditions: Table 3; human 125I-PYY (1-36) 0.02 nM, Y2 receptor membranes; read-out: Ki
T1 construct: purchased CHEMICON HTS066M
T1 sequence (P49146 1-381): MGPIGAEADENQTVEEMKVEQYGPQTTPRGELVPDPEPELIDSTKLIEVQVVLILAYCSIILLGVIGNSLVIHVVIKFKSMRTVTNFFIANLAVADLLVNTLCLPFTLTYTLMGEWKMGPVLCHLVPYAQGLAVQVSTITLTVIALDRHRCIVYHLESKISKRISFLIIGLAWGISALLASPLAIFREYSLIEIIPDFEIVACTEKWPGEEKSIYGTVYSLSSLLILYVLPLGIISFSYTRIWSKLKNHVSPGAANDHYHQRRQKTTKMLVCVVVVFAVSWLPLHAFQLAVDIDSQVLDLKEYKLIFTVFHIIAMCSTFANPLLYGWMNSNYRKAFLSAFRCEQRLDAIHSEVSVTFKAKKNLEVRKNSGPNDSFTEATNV
Procedure, shortened: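 Competition binding at commercial human NPY Y2 membrane preparations, 0.5 μg protein per well, 2 h incubation at room temperature. Bound and free ligand were separated on GF/C filters and counted; IC50 was fitted by nonlinear regression.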

Row | Compound | Ki
1 | CC(C)CC(=O)N[C@@H](C)C(=O)N1CCC[C@H]1C(=O)N[C@@H](C)C(=O)N[C@@H](CCCCNC(=O)COCCOCCNC(=O)COCCOCCNC(=O)CC[C@H](NC(=O)CCCCCCCCCCCCCCCCC(=O)O)C(=O)O)C(=O)N1CCC[C@H]1C(=O)N[C@@H](CCC(=O)O)C(=O)N[C@@H](C)C(=O)N[C@@H](CC(=O)O)C(=O)N[C@@H](C)C(=O)N[C@@H](CO)C(=O)N1CCC[C@H]1C(=O)N[C@@H](CCC(=O)O)C(=O)N[C@@H](CCC(=O)O)C(=O)N[C@@H](CC(C)C)C(=O)N[C@@H](CCC(N)=O)C(=O)N[C@@H](CCCNC(=N)N)C(=O)N[C@@H](Cc1ccc(O)cc1)C(=O)N[C@@H](Cc1ccc(O)cc1)C(=O)N[C@H](C(=O)N[C@@H](CO)C(=O)N[C@@H](CC(C)C)C(=O)N[C@@H](CCCNC(=N)N)C(=O)N[C@@H](Cc1c[nH]cn1)C(=O)N[C@@H](Cc1ccc(O)cc1)C(=O)N[C@@H](Cc1ccc(O)cc1)C(=O)N[C@@H](CC(N)=O)C(=O)N[C@@H](Cc1c[nH]c2ccccc12)C(=O)N[C@@H](CC(C)C)C(=O)N[C@H](C(=O)N[C@@H](CCCNC(=N)N)C(=O)N[C@@H](CCC(N)=O)C(=O)N[C@@H](CCCNC(=N)N)C(=O)N[C@@H](Cc1ccc(O)cc1)C(N)=O)[C@@H](C)O)C(C)C [Compound 121, N{alpha-4}-(3-methylbutanoyl)-N{epsilon-7}-[2-(2-{2-[2-(2-{2-[(4S)-4-carboxy-4-(17-carboxyheptadecanamido)butanamido]ethoxy}ethoxy)acetamido]ethoxy}ethoxy)acetamido]-[4A,6A,7K,9E,10A,18Q,22V,28Y,30W,31L]hPYY (4-36)] | 0.61 nM
2 | CC(C)CC(=O)N[C@@H](C)C(=O)N1CCC[C@H]1C(=O)N[C@@H](CCC(=O)O)C(=O)N[C@@H](CCCCNC(=O)COCCOCCNC(=O)COCCOCCNC(=O)CC[C@H](NC(=O)CCCCCCCCCCCCCCCCC(=O)O)C(=O)O)C(=O)N1CCC[C@H]1C(=O)N[C@@H](CCC(=O)O)C(=O)N[C@@H](CCC(=O)O)C(=O)N[C@@H](CC(=O)O)C(=O)N[C@@H](C)C(=O)N[C@@H](C)C(=O)N1CCC[C@H]1C(=O)N[C@@H](CCC(=O)O)C(=O)N[C@@H](CCC(=O)O)C(=O)N[C@@H](CC(C)C)C(=O)N[C@@H](CCC(N)=O)C(=O)N[C@@H](CCCNC(=N)N)C(=O)N[C@@H](Cc1ccc(O)cc1)C(=O)N[C@@H](Cc1ccc(O)cc1)C(=O)N[C@H](C(=O)N[C@@H](CO)C(=O)N[C@@H](CC(C)C)C(=O)N[C@@H](CCCNC(=N)N)C(=O)N[C@@H](Cc1c[nH]cn1)C(=O)N[C@@H](Cc1ccc(O)cc1)C(=O)N[C@@H](Cc1ccc(O)cc1)C(=O)N[C@@H](CC(N)=O)C(=O)N[C@@H](Cc1c[nH]c2ccccc12)C(=O)N[C@@H](CC(C)C)C(=O)N[C@H](C(=O)N[C@@H](CCCNC(=N)N)C(=O)N[C@@H](CCC(N)=O)C(=O)N[C@@H](CCCNC(=N)N)C(=O)N[C@@H](Cc1ccc(O)cc1)C(N)=O)[C@@H](C)O)C(C)C [Compound 122, N{alpha-4}-(3-methylbutanoyl)-N{epsilon-7}-[2-(2-{2-[2-(2-{2-[(4S)-4-carboxy-4-(17-carboxyheptadecanamido)butanamido]ethoxy}ethoxy)acetamido]ethoxy}ethoxy)acetamido]-[4A,7K,9E,13A,18Q,22V,28Y,30W,31L]hPYY (4-36)] | 1.84 nM
3 | CC(C)CC(=O)N[C@@H](C)C(=O)N1CCC[C@H]1C(=O)N[C@@H](C)C(=O)N[C@@H](CCCCNC(=O)COCCOCCNC(=O)COCCOCCNC(=O)CC[C@H](NC(=O)CCCCCCCCCCCCCCCCC(=O)O)C(=O)O)C(=O)N1CCC[C@H]1C(=O)N[C@@H](CCC(=O)O)C(=O)N[C@@H](CCC(=O)O)C(=O)N[C@@H](CC(=O)O)C(=O)N[C@@H](CO)C(=O)N[C@@H](CO)C(=O)N1CCC[C@H]1C(=O)N[C@@H](CCC(=O)O)C(=O)N[C@@H](CCC(=O)O)C(=O)N[C@@H](CC(C)C)C(=O)N[C@@H](CCC(N)=O)C(=O)N[C@@H](CCCNC(=N)N)C(=O)N[C@@H](Cc1ccc(O)cc1)C(=O)N[C@@H](Cc1ccc(O)cc1)C(=O)N[C@H](C(=O)N[C@@H](CO)C(=O)N[C@@H](CC(C)C)C(=O)N[C@@H](CCCNC(=N)N)C(=O)N[C@@H](Cc1c[nH]cn1)C(=O)N[C@@H](Cc1ccc(O)cc1)C(=O)N[C@@H](Cc1ccc(O)cc1)C(=O)N[C@@H](CC(N)=O)C(=O)N[C@@H](Cc1c[nH]c2ccccc12)C(=O)N[C@@H](CC(C)C)C(=O)N[C@H](C(=O)N[C@@H](CCCNC(=N)N)C(=O)N[C@@H](CCC(N)=O)C(=O)N[C@@H](CCCNC(=N)N)C(=O)N[C@@H](Cc1ccc(O)cc1)C(N)=O)[C@@H](C)O)C(C)C [Compound 126, N{alpha-4}-(3-methylbutanoyl)-N{epsilon-7}-[2-(2-{2-[2-(2-{2-[(4S)-4-carboxy-4-(17-carboxyheptadecanamido)butanamido]ethoxy}ethoxy)acetamido]ethoxy}ethoxy)acetamido]-[4A,6A,7K,9E,12S,18Q,22V,28Y,30W,31L]hPYY (4-36)] | 1.18 nM
4 | CC(C)CC(=O)N[C@@H](C)C(=O)N1CCC[C@H]1C(=O)N[C@@H](CCC(=O)O)C(=O)N[C@@H](CCCCNC(=O)COCCOCCNC(=O)COCCOCCNC(=O)CC[C@H](NC(=O)CCCCCCCCCCCCCCCCC(=O)O)C(=O)O)C(=O)N1CCC[C@H]1C(=O)N[C@@H](CCC(=O)O)C(=O)N[C@@H](CCC(=O)O)C(=O)N[C@@H](CC(=O)O)C(=O)N[C@H](C(=O)N[C@@H](CO)C(=O)N[C@@H](C)C(=O)N[C@@H](CCC(=O)O)C(=O)N[C@@H](CCC(=O)O)C(=O)N[C@@H](CC(C)C)C(=O)N[C@@H](CCC(N)=O)C(=O)N[C@@H](CCCNC(=N)N)C(=O)N[C@@H](Cc1ccc(O)cc1)C(=O)N[C@@H](Cc1ccc(O)cc1)C(=O)N[C@H](C(=O)N[C@@H](CO)C(=O)N[C@@H](CC(C)C)C(=O)N[C@@H](CCCNC(=N)N)C(=O)N[C@@H](Cc1c[nH]cn1)C(=O)N[C@@H](Cc1ccc(O)cc1)C(=O)N[C@@H](Cc1ccc(O)cc1)C(=O)N[C@@H](CC(N)=O)C(=O)N[C@@H](Cc1c[nH]c2ccccc12)C(=O)N[C@@H](CC(C)C)C(=O)N[C@H](C(=O)N[C@@H](CCCNC(=N)N)C(=O)N[C@@H](CCC(N)=O)C(=O)N[C@@H](CCCNC(=N)N)C(=O)N[C@@H](Cc1ccc(O)cc1)C(N)=O)[C@@H](C)O)C(C)C)[C@@H](C)O [Compound 130, N{alpha-4}-(3-methylbutanoyl)-N{epsilon-7}-[2-(2-{2-[2-(2-{2-[(4S)-4-carboxy-4-(17-carboxyheptadecanamido)butanamido]ethoxy}ethoxy)acetamido]ethoxy}ethoxy)acetamido]-[4A,7K,9E,12T,14A, 18Q,22V,28Y,30W,31L]hPYY (4-36)] | 11.1 nM
5 | CC(C)CC(=O)N[C@@H](C)C(=O)N1CCC[C@H]1C(=O)N[C@@H](CCC(=O)O)C(=O)N[C@@H](CCCCNC(=O)COCCOCCNC(=O)COCCOCCNC(=O)CC[C@H](NC(=O)CCCCCCCCCCCCCCCCC(=O)O)C(=O)O)C(=O)N[C@@H](C)C(=O)N[C@@H](CCC(=O)O)C(=O)N[C@@H](CCC(=O)O)C(=O)N[C@@H](CC(=O)O)C(=O)N[C@@H](C)C(=O)N[C@@H](CO)C(=O)N1CCC[C@H]1C(=O)N[C@@H](CCC(=O)O)C(=O)N[C@@H](CCC(=O)O)C(=O)N[C@@H](CC(C)C)C(=O)N[C@@H](CCC(N)=O)C(=O)N[C@@H](CCCNC(=N)N)C(=O)N[C@@H](Cc1ccc(O)cc1)C(=O)N[C@@H](Cc1ccc(O)cc1)C(=O)N[C@H](C(=O)N[C@@H](CCC(=O)O)C(=O)N[C@@H](CC(C)C)C(=O)N[C@@H](CCCNC(=N)N)C(=O)N[C@@H](Cc1c[nH]cn1)C(=O)N[C@@H](Cc1ccc(O)cc1)C(=O)N[C@@H](Cc1ccc(O)cc1)C(=O)N[C@@H](CC(N)=O)C(=O)N[C@@H](Cc1c[nH]c2ccccc12)C(=O)N[C@@H](CC(C)C)C(=O)N[C@H](C(=O)N[C@@H](CCCNC(=N)N)C(=O)N[C@@H](CCC(N)=O)C(=O)N[C@@H](CCCNC(=N)N)C(=O)N[C@@H](Cc1ccc(O)cc1)C(N)=O)[C@@H](C)O)C(C)C [Compound 131, N{alpha-4}-(3-methylbutanoyl)-N{epsilon-7}-[2-(2-{2-[2-(2-{2-[(4S)-4-carboxy-4-(17-carboxyheptadecanamido)butanamido]ethoxy}ethoxy)acetamido]ethoxy}ethoxy)acetamido]-[4A,7K,8A,9E,18Q,22V,23E,28Y,30W,31L]hPYY (4-36)] | 8.54 nM
6 | CC[C@H](C)[C@H](NC(=O)[C@H](CCC(=O)O)NC(=O)[C@H](CCC(=O)O)NC(=O)[C@@H]1CCCN1C(=O)[C@H](CO)NC(=O)[C@H](C)NC(=O)[C@H](CC(=O)O)NC(=O)[C@H](CCC(=O)O)NC(=O)[C@H](CCC(=O)O)NC(=O)[C@@H]1CCCN1C(=O)[C@H](CCCCNC(=O)COCCOCCNC(=O)COCCOCCNC(=O)CC[C@H](NC(=O)CCCCCCCCCCCCCCCCC(=O)O)C(=O)O)NC(=O)[C@H](CCC(=O)O)NC(=O)[C@@H]1CCCN1C(=O)[C@H](C)NC(=O)CC(C)C)C(=O)N[C@@H](CCC(N)=O)C(=O)N[C@@H](CCCNC(=N)N)C(=O)N[C@@H](Cc1ccc(O)cc1)C(=O)N[C@@H](Cc1ccc(O)cc1)C(=O)N[C@H](C(=O)N[C@@H](CCC(=O)O)C(=O)N[C@@H](CC(C)C)C(=O)N[C@@H](CCCNC(=N)N)C(=O)N[C@@H](Cc1c[nH]cn1)C(=O)N[C@@H](Cc1ccc(O)cc1)C(=O)N[C@@H](Cc1ccc(O)cc1)C(=O)N[C@@H](CC(N)=O)C(=O)N[C@@H](Cc1c[nH]c2ccccc12)C(=O)N[C@@H](CC(C)C)C(=O)N[C@H](C(=O)N[C@@H](CCCNC(=N)N)C(=O)N[C@@H](CCC(N)=O)C(=O)N[C@@H](CCCNC(=N)N)C(=O)N[C@@H](Cc1ccc(O)cc1)C(N)=O)[C@@H](C)O)[C@@H](C)O [Compound 134, N{alpha-4}-(3-methylbutanoyl)-N{epsilon-7}-[2-(2-{2-[2-(2-{2-[(4S)-4-carboxy-4-(17-carboxyheptadecanamido)butanamido]ethoxy}ethoxy)acetamido]ethoxy}ethoxy)acetamido]-[4A,7K,9E,17I,18Q,22T,23E,28Y,30W,31L]hPYY (4-36)] | 1.17 nM
